Test results published in US10039839B2, “Compounds that participate in cooperative binding and uses thereof” (Warp Drive Bio, Inc., priority 2015, dated 2018).
Square brackets hold non-standard residues; d marks the D form. Peptide text beside a SMILES is read from it. MeBmt = C/C=C/C[C@@H](C)[C@@H](O)[C@H](NC)C(=O)O; NMepY = CN[C@@H](Cc1ccc(OP(=O)(O)O)cc1)C(=O)O; NMeL = CN[C@@H](CC(C)C)C(=O)O; NMeV = CN[C@H](C(=O)O)C(C)C; Abu = CC[C@H](N)C(=O)O; Sar = CNCC(=O)O

Experiments:
[1] = target: T1, Cyclophilin A (Homo sapiens, UniProt P62937); assay: biochemical; assay type: binding
T1 construct: made in house
T1 sequence (P62937 whole entry, species assumed): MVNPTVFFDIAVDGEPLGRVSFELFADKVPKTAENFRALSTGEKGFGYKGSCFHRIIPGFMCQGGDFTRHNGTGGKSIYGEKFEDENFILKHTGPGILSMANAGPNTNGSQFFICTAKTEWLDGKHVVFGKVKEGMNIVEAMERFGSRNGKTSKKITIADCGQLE
Method: This protocol utilizes Perkin Elmers AlphaLISA technology platform to detect cyclosporine analogues by measuring the inhibition of binding of biotinylated Cyclosporin A to FLAG tagged Cyclophilin A.
Add 20 uL of 6 nM Biotinylated CsA working stock to each well of the 96-well plate. Add 1 uL of test compound (100% DMSO) to each well of the plate using the Janus MTD head and P20 tips (except control wells). Add 1 uL of DMSO to negative control wells and 1 uL of 500 uM Cyclosporin A solution to positive control wells. In the dark, add 20 uL of combined Donor/Acceptor beads to each well. Incubate in the dark for 30 minutes at room temperature. […] Incubate in the dark for 60 minutes at room temperature.

[2] = test system: HeLa-Cyclophilin A cells; assay: Biosensor cell permeability assay, cyclophilin binding compounds; assay type: cell-based; conditions: 72 hrs
Method: This protocol utilizes a modified FKBP or cyclophilin destabilizing mutant to determine the bioactivity of FKBP binding compounds or cyclophilin binding compounds in whole cell assay.
Plate HeLa-FKBP12 cells (for FKBP binding compounds) or HeLa-Cyclophilin A cells (for cyclophilin binding compounds) and seed overnight at 5 k/well (approximately ˜18 hrs.). Using a multi-channel pipet, take out the old media and add ˜125 ul of new media with compounds. Compounds are diluted using DMEM without Phenol Red, 10% FBS, 1× Sodium Pyruvate, 1× Glutamax. Add 125 ul of media with compound per well.
Cell binding/permeability is calculated in fold-change (Total RFU of treated samples/total RFU of DMSO treated samples or total RFU above background (Total RFU minus total RFU of DMSO treated samples).

SMILES	IC50 [1]	IC50 [2]
C/C=C/C[C@@H](C)[C@@H](O)[C@H]1C(=O)N[C@@H](CC)C(=O)N(C)CC(=O)N(C)[C@@H](C(C)C)C(=O)N[C@@H](C(C)C)C(=O)N(C)[C@@H](CC(C)C)C(=O)N[C@@H](C)C(=O)N[C@H](C)C(=O)N(C)[C@@H](CC(C)C)C(=O)N(C)[C@@H](CC(C)C)C(=O)N(C)[C@@H](C(C)C)C(=O)N1C [C40] (cyclo([MeBmt][Abu][Sar][NMeV]V[NMeL]A[dA][NMeL][NMeL][NMeV]))	< 2000 nM	< 3000 nM
C/C=C/C[C@@H](C)[C@@H](O)[C@H]1C(=O)N[C@@H](CC)C(=O)N(C)CC(=O)N(C)[C@@H](Cc2ccc(OP(=O)(O)O)cc2)C(=O)N[C@@H](C(C)C)C(=O)N(C)[C@@H](CC(C)C)C(=O)N[C@@H](C)C(=O)N[C@H](C)C(=O)N(C)[C@@H](CC(C)C)C(=O)N(C)[C@@H](CC(C)C)C(=O)N(C)[C@@H](C(C)C)C(=O)N1C [C41] (cyclo([MeBmt][Abu][Sar][NMepY]V[NMeL]A[dA][NMeL][NMeL][NMeV]))	< 2000 nM	> 3000 nM
